Experimental data: patent publication US20140050778A1, “NUCLEIC ACID BINDING COMPOUNDS, METHODS OF MAKING, AND USE THEREOF” (UNIVERSITY OF ROCHESTER, priority 2010, published 2014)

Key:
C1-S cells [1] = test: Total protein in cell lysates (Bradford assay); type: cell-based, mouse; conditions: increasing concentration
C1-S cells [2] = test: WST-1 viability; type: cell-based, mouse; conditions: C1-S cells at the assay concentrations
Description: The ability of selected compounds to inhibit the formation of CUG^exp RNA-MBNL1 complexes in mouse myoblasts was then evaluated. For this study, C2C12 mouse myoblasts engineered to stably express a firefly luciferase transcript with or without ˜800 uninterrupted CUG repeats in an hDMPK 3′UTR (clones C5-14 and C1-S, respectively) were used. Cells were grown in 100 μl growth media in 96-well plates to ˜10% confluency. Compound was added at various concentrations in triplicate to both C1-S and C5-14 cultures, and incubated for 3 days. Culture media was replaced with fresh media containing 1% WST-1 reagent (Roche). After ˜15-20 minutes of incubation, the WST-1 containing media was transferred to a clear 96-well plate, and the absorbances at 450 nm and 690 nm measured with a PerkinElmer EnVision Plate Reader. Cells were gently rinsed (1×PBS) before incubation at −20° C. in 100 μl 1X Passive Lysis Buffer (Promega) for 10 minutes. Immediately before luminescence detection, 20 μl of each lysate was mixed with 50 μl of Luciferase Assay Reagent (Promega) in a fresh opaque-white 96-well plate. Luminescence values were normalized for well-to-well variations in viable cell numbers by dividing by the corresponding (A450 nm-A690 nm) values of the WST-1 containing media.

C5-14 cells = type: cell-based, mouse
Text: Formation of (CUG)800 RNA-MBNL1 complexes in the C5-14 cell line suppresses translation of this mRNA and, therefore, suppresses the cellular level of luciferase Inhibition of protein complexation to the (CUG)800 RNA allows translation to occur, restoring luciferase expression. A second cell line (C1-S) carrying an analogous luciferase construct lacking the CUG repeats in the 3′-UTR was used as a positive control for luciferase expression. […] It was hypothesized that binding of the compounds of the present invention to the (CUG)800 repeat in C5-14 cells would likewise promote release of the luciferase transcripts from the nucleus, resulting in increased luciferase expression and activity. In contrast, luciferase activity in positive control (C1-S) cells should not be affected by the presence of CUG RNA binding compounds. […] The fact that this effect is not observed for compounds 10 and 11 likely results from their greater selectivity for CUG repeats. Thus, CUG^exp binding compounds are capable of releasing the sequestered mRNA transcripts into the cytoplasm for translation.

HSA^LR transgenic mice = test: MBNL1-dependent splicing in mouse myotonic dystrophy model (RT-PCR, vastus muscle); type: in vivo; conditions: 40 mg/kg intraperitoneally once per day for 5 days
Description: Mouse handling and experimental procedures were conducted in accordance with the Association for Assessment and Accreditation of Laboratory Animal Care. […] Age- and gender-matched HSA^LR mice (12-16 weeks old) were injected intraperitoneally with 40 mg/kg of compounds or saline alone once per day for 5 days. Mice were sacrificed one day after the last injection, and vastus muscle was obtained for splicing analysis. RNA extraction, cDNA preparation, and RT-PCR were performed as described previously. The PCR products were electrophoresed on agarose gels for separation, and scanned with a laser fluorimager (Typhoon, GE Healthcare). Quantitative analysis of amplified products was performed by ImageQuant software (Molecular Dynamics). Differences between two groups were evaluated by unpaired Student's t-test. A critical test of a compound's performance is its ability to function in vivo. DM1 has several well-studied mouse models (Gomes-Pereira et al., “Myotonic Dystrophy Mouse Models: Towards Rational Therapy Development,” Trends Mol. Med. 17:506-517 (2011), which is hereby incorporated by reference in its entirety). Compound activity in the HSA^LR mouse model, in which transgenic mice carry a long CTG repeat inserted into the human skeletal actin (HSA) gene in skeletal muscle (Mankodi, “Myotonic Dystrophy in Transgenic Mice Expressing an Expanded CUG Repeat,” Science 289:1769-1772 (2000), which is hereby incorporated by reference in its entirety) was examined. […] They also display aberrant splicing of genes, including Clcn1 and Atp2a1, which are hallmarks of nuclear transcript sequestration.

[3] = system: C1-S C2C12 mouse myoblasts; test: Firefly luciferase reporter without CUG repeats (control); type: cell-based; conditions: C1-S cells (no CUG repeats), 3 days
Description: The ability of selected compounds to inhibit the formation of CUG^exp RNA-MBNL1 complexes in mouse myoblasts was then evaluated. […] Cells were grown in 100 μl growth media in 96-well plates to 10% confluency. […] Culture media was replaced with fresh media containing 1% WST-1 reagent (Roche). After 15-20 minutes of incubation, the WST-1 containing media was transferred to a clear 96-well plate, and the absorbances at 450 nm and 690 nm measured with a PerkinElmer EnVision Plate Reader. Cells were gently rinsed (1×PBS) before incubation at -20° C. in 100 μl 1X Passive Lysis Buffer (Promega) for 10 minutes. Immediately before luminescence detection, 20 μl of each lysate was mixed with 50 μl of Luciferase Assay Reagent (Promega) in a fresh opaque-white 96-well plate. Luminescence values were normalized for well-to-well variations in viable cell numbers by dividing by the corresponding (A450 nm-[…] nm) values of the WST-1 containing media. […] Thus, CUG^exp binding compounds are capable of releasing the sequestered mRNA transcripts into the cytoplasm for translation.

mouse C2C12 myoblasts = test: Cell permeability by fluorescence microscopy; type: cell-based; conditions: 12 h, 125 μM, intrinsic fluorescence
Description: For cell permeability studies, human fibroblasts or mouse myoblasts grown to 80% confluence were exposed to compounds for 12 hours in a 96 well tissue culture plate. After removal of the culture media (DMEM, with 10% FBS, 1% pen-strep (GIBCO)) the cells were washed twice with PBS to remove excess compounds. Cells were then imaged while in buffer under a fluorescence microscope (Olympus IX70) in the 96-well plate using a 460 nm emission filter.

## CCc1nc2cc3ccccc3cc2cc1C(=O)N1CCC[C@H]1C(=O)N[C@@H](C/C=C\C[C@H](NC(=O)[C@@H]1CCCN1C(=O)c1cc2cc3ccccc3cc2nc1CC)C(=O)N[C@@H](CCCCN)C(=O)NCCCN)C(=O)N[C@@H](CCCCN)C(=O)NCCCN [Compound 4]
C1-S cells [1]
  concentration of total protein in cell lysates: decreasing level of protein expression
C1-S cells [2]
  WST-1 viability: no observable toxicity
C5-14 cells
  concentration of total protein in cell lysates: decreasing level of protein expression
HSA^LR transgenic mice
  improvement of Atp2a1 splicing: qualitatively appeared to restore splicing
  improvement of Clcn1 splicing: modest but statistically significant (P=0.0115) improvement
[3]
  luciferase signal: concentration-dependent decrease in luciferase activity

## CCc1nc2cc3ccccc3cc2cc1C(=O)N1CCC[C@H]1C(=O)N[C@@H](C/C=C/C[C@H](NC(=O)[C@@H]1CCCN1C(=O)c1cc2cc3ccccc3cc2nc1CC)C(=O)N[C@@H](CCCCN)C(=O)NCCCN)C(=O)N[C@@H](CCCCN)C(=O)NCCCN [Compound 5]
Mouse C2C12 myoblasts
  cell membrane penetration / localization: readily penetrate cell membranes and localize in the nucleus
